# Test results: US20070015723A1, “Antiviral oligonucleotides having a conserved G4 core sequence” (priority 1992, published 2007)
# Strand notation (5' to 3'): a small letter for the sugar, then the base; units joined by * are phosphorothioate-linked, units joined directly phosphodiester-linked; [ ] holds rarer units or linkages, { } end groups; capitals alone tell only the bases. d = 2'-deoxy (DNA)
# Molecular target: T1, human type II phospholipase A2 (Homo sapiens, UniProt P14555)
# T1 sequence (P14555 21-144): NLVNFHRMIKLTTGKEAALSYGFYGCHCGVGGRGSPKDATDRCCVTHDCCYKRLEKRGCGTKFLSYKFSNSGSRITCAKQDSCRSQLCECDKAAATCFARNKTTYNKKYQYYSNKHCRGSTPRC
# Assay: Human type II phospholipase A2 enzyme assay (3H-oleic acid labelled E. coli substrate)
# Format: biochemical
# Details: 1 μM; Table 4
row,Substance,% Inhibition (1 μM)
1,"ISIS 3688: TGGCCTCACCGATCCGTTGCA, phosphorothioate, SEQ ID NO 91 (dT*dG*dG*dC*dC*dT*dC*dA*dC*dC*dG*dA*dT*dC*dC*dG*dT*dT*dG*dC*dA)",43.1%
2,"ISIS 3694: ACAGCAGCTGTGAGGAGACAC, phosphorothioate, SEQ ID NO 92 (dA*dC*dA*dG*dC*dA*dG*dC*dT*dG*dT*dG*dA*dG*dG*dA*dG*dA*dC*dA*dC)",28.2%
3,"ISIS 3697: ACTCTTACCACAGGTGATTCT, phosphorothioate, SEQ ID NO 93 (dA*dC*dT*dC*dT*dT*dA*dC*dC*dA*dC*dA*dG*dG*dT*dG*dA*dT*dT*dC*dT)",39%
4,"ISIS 3712: AGGAGTCCTGTTTTGAAATCA, phosphorothioate, SEQ ID NO 94 (dA*dG*dG*dA*dG*dT*dC*dC*dT*dG*dT*dT*dT*dT*dG*dA*dA*dA*dT*dC*dA)",31.8%
5,"ISIS 4133: AGTGCACGTTGAGTATGTGAG, phosphorothioate, SEQ ID NO 95 (dA*dG*dT*dG*dC*dA*dC*dG*dT*dT*dG*dA*dG*dT*dA*dT*dG*dT*dG*dA*dG)",37.3%
6,"ISIS 4149: CTACGGCAGAGACGAGATAGC, phosphorothioate, SEQ ID NO 96 (dC*dT*dA*dC*dG*dG*dC*dA*dG*dA*dG*dA*dC*dG*dA*dG*dA*dT*dA*dG*dC)",20.2%

# Same assay, conditions: 1 μM; Table 5, two separate experiments
row,Substance,% Inhibition (1 μM)
1,"ISIS 4946: GGG TGG GAA TAG, SEQ ID NO 107 (dG*dG*dG*dT*dG*dG*dG*dA*dA*dT*dA*dG; aptamer)",73.2%
2,"ISIS 4947: AGG TGG GTA TAG, SEQ ID NO 103 (dA*dG*dG*dT*dG*dG*dG*dT*dA*dT*dA*dG; aptamer)",22.7%
3,"ISIS 4955: GGG AGG GTA TAG, SEQ ID NO 104 (dG*dG*dG*dA*dG*dG*dG*dT*dA*dT*dA*dG; aptamer)",97.5%
4,"ISIS 4956: GGG CGG GTA TAG, SEQ ID NO 105 (dG*dG*dG*dC*dG*dG*dG*dT*dA*dT*dA*dG; aptamer)",92.0%
5,"ISIS 4957: GGG TGG ATA TAG, SEQ ID NO 106 (dG*dG*dG*dT*dG*dG*dA*dT*dA*dT*dA*dG; aptamer)",81.9%
6,"ISIS 4962: GGG TGG GTA T, SEQ ID NO 108 (dG*dG*dG*dT*dG*dG*dG*dT*dA*dT)",36.3%
7,"TAG AAG GGC TCC: truncated version of ISIS 3196, SEQ ID NO 101 (dT*dA*dG*dA*dA*dG*dG*dG*dC*dT*dC*dC)",0%
8,"TGG GTA TAG AAG GGC TCC: truncated version of ISIS 3196, SEQ ID NO 99 (dT*dG*dG*dG*dT*dA*dT*dA*dG*dA*dA*dG*dG*dG*dC*dT*dC*dC)",84.6%
9,"TGG GTA TAG AAG GGC: truncated version of ISIS 3196, SEQ ID NO 102 (dT*dG*dG*dG*dT*dA*dT*dA*dG*dA*dA*dG*dG*dG*dC)",33.5%

# Test system: HSV-1 (KOS)
# Assay: HSV-1 infection ELISA assay
# Format: cell-based
# Details: 50% inhibition of HSV replication relative to control infected cells; Table 1
row,Substance,EC50
1,"ISIS 4664: GGG T GGG T ATA G AAG G GC, P = S, SEQ ID NO 48 (GGGTGGGTATAGAAGGGC; all phosphorothioate, sugars by position and methylation of C not given here)",200 nM
2,"ISIS 4671: GGG T GGG T ATA GAA G, P = S, SEQ ID NO 49 (GGGTGGGTATAGAAG; all phosphorothioate, sugars by position not given here)",400 nM
3,"ISIS 4692: T GGG T ATA G AAG GGC TCC, P = S, SEQ ID NO 51 (TGGGTATAGAAGGGCTCC; all phosphorothioate, sugars by position and methylation of C not given here)",1500 nM
4,"ISIS 4693: G T ATA G AAG GGC TCC, P = S, SEQ ID NO 52 (GTATAGAAGGGCTCC; all phosphorothioate, sugars by position and methylation of C not given here)",> 3000 nM
5,"ISIS 4694: TA G AAG GGC TCC, P = S, SEQ ID NO 53 (TAGAAGGGCTCC; all phosphorothioate, sugars by position and methylation of C not given here)",> 3000 nM

# Same assay, conditions: HSV-1 (KOS strain); Table 9; some in duplicate
row,Substance,EC50
1,"ISIS 4111: CCTGGATGATGCTGGGGTAC, phosphorothioate, SEQ ID NO 131 (CCTGGATGATGCTGGGGTAC; antisense; all phosphorothioate, sugars by position and methylation of C not given here)",600 nM
2,"ISIS 4112: GACTGGGGCGAGGTAGGGGT, phosphorothioate, SEQ ID NO 132 (GACTGGGGCGAGGTAGGGGT; antisense; all phosphorothioate, sugars by position and methylation of C not given here)",300 nM
3,"ISIS 4341: TGGAGACCGGGGTTGGGGAA, phosphorothioate, SEQ ID NO 127 (TGGAGACCGGGGTTGGGGAA; antisense; all phosphorothioate, sugars by position and methylation of C not given here)",200 nM
4,"ISIS 4342: TTGGAGACCGGGGTTGGGGA, phosphorothioate, SEQ ID NO 128 (TTGGAGACCGGGGTTGGGGA; antisense; all phosphorothioate, sugars by position and methylation of C not given here)",200 nM
5,"ISIS 4346: GAGGTGGGCTTCGGTGGTGA, phosphorothioate, SEQ ID NO 123 (GAGGTGGGCTTCGGTGGTGA; antisense; all phosphorothioate, sugars by position and methylation of C not given here)",500 nM
6,"ISIS 4348: GGGTTGGAGACCGGGGTTGG, phosphorothioate, SEQ ID NO 125 (GGGTTGGAGACCGGGGTTGG; all phosphorothioate, sugars by position and methylation of C not given here)",400 nM
7,"ISIS 4349: GGTTGGAGACCGGGGTTGGG, phosphorothioate, SEQ ID NO 126 (GGTTGGAGACCGGGGTTGGG; antisense; all phosphorothioate, sugars by position and methylation of C not given here)",250 nM
8,"ISIS 4350: GACGGTCAAGGGGAGGGTTGG, phosphorothioate, SEQ ID NO 129 (GACGGTCAAGGGGAGGGTTGG; all phosphorothioate, sugars by position and methylation of C not given here)",250 nM
9,"ISIS 4393: GGGGTTGGGGAATGAATCCC, phosphorothioate, SEQ ID NO 124 (GGGGTTGGGGAATGAATCCC; antisense; all phosphorothioate, sugars by position and methylation of C not given here)",200 nM
10,"ISIS 4399: GTCCCGACTGGGGCGAGGAT, phosphorothioate, SEQ ID NO 133 (GTCCCGACTGGGGCGAGGAT; antisense; all phosphorothioate, sugars by position and methylation of C not given here)",250 nM
11,"ISIS 4435: GGGGAGACCGAAACCGCAAA, phosphorothioate, SEQ ID NO 130 (GGGGAGACCGAAACCGCAAA; antisense; all phosphorothioate, sugars by position and methylation of C not given here)",220 nM
